In ChEMBL document CHEMBL4507276 (2021):

Columns and labels:
[1] = biological target: Histamine H3 receptor (Homo sapiens) (UniProt Q9Y5N1); assay: H3/H Eurofins-Panlabs selectivity data (BI); conditions: Compound concentration 10.0 uM
[2] = biological target: Prostaglandin E2 receptor EP2 subtype (Homo sapiens) (UniProt P43116); assay: EP2(H) Cerep selectivity data (BI); conditions: filed as agonist, Compound concentration 20.0 uM
[3] = biological target: Wee1-like protein kinase (Homo sapiens) (UniProt P30291); assay: WEE1 Invitrogen selectivity data (BI); conditions: Compound concentration 3.0 uM
[4] = system: Proto-oncogene tyrosine-protein kinase receptor Ret (Homo sapiens), P07949 [Y791F]; assay: RET Y791F Invitrogen selectivity data (BI); conditions: Compound concentration 3.0 uM
Sequence of Proto-oncogene tyrosine-protein kinase receptor Ret (Homo sapiens), P07949 [Y791F] (P07949 whole entry Y791F): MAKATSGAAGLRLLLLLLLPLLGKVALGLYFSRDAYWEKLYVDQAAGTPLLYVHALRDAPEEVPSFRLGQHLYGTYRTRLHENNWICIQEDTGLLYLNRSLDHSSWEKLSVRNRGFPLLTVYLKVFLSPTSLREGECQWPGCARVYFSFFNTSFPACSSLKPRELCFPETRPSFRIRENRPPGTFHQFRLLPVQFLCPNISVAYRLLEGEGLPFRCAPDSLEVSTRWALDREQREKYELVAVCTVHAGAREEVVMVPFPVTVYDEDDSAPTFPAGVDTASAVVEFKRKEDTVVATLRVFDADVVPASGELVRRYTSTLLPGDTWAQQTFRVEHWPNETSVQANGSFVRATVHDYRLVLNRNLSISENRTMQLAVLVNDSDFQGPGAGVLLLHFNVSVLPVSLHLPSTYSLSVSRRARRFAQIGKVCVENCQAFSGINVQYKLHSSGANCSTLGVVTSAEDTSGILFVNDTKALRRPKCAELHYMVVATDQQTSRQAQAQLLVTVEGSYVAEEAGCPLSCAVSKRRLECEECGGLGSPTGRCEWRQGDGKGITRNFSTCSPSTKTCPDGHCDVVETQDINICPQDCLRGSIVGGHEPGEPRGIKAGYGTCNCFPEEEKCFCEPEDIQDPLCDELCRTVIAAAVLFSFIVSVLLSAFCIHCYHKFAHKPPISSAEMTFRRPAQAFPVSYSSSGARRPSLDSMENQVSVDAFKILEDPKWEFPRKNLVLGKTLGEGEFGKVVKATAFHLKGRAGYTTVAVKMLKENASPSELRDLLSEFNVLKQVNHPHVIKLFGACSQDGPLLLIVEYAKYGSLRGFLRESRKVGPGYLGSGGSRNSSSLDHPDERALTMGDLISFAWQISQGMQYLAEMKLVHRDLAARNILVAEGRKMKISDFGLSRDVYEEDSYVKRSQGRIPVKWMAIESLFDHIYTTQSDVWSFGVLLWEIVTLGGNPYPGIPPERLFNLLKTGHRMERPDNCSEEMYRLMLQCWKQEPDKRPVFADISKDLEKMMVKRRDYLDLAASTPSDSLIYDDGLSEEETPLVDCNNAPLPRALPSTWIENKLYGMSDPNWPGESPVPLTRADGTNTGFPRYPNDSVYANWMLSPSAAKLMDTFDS

[5] = biological target: Glutamate receptor ionotropic, NMDA 1 (Rattus norvegicus) (UniProt P35439); assay: NMDAGLSI/RA Eurofins-Panlabs selectivity data (BI); conditions: Compound concentration 10.0 uM
[6] = biological target: MAP kinase-interacting serine/threonine-protein kinase 1 (Homo sapiens) (UniProt Q9BUB5); assay: MKNK1 Invitrogen selectivity data (BI); conditions: Compound concentration 3.0 uM
Sequence of MAP kinase-interacting serine/threonine-protein kinase 1 (Homo sapiens) (Q9BUB5 whole entry, looked up): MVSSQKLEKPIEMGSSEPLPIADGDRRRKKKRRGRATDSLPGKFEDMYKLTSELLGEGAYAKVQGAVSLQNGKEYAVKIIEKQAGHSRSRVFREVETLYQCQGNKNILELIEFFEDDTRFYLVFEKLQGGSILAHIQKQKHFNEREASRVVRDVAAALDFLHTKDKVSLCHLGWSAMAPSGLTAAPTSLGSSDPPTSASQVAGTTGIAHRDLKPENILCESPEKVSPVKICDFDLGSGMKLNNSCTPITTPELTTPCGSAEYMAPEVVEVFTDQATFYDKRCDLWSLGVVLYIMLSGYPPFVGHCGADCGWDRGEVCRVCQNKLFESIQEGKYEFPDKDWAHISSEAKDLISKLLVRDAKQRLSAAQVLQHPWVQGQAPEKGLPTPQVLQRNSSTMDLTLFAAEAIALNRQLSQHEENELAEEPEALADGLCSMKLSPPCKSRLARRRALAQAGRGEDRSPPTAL

[7] = biological target: Calcium/calmodulin-dependent protein kinase type II subunit beta (Homo sapiens) (UniProt Q13554); assay: CAMK2B Invitrogen selectivity data (BI); conditions: Compound concentration 3.0 uM
Sequence of Calcium/calmodulin-dependent protein kinase type II subunit beta (Homo sapiens) (Q13554 whole entry): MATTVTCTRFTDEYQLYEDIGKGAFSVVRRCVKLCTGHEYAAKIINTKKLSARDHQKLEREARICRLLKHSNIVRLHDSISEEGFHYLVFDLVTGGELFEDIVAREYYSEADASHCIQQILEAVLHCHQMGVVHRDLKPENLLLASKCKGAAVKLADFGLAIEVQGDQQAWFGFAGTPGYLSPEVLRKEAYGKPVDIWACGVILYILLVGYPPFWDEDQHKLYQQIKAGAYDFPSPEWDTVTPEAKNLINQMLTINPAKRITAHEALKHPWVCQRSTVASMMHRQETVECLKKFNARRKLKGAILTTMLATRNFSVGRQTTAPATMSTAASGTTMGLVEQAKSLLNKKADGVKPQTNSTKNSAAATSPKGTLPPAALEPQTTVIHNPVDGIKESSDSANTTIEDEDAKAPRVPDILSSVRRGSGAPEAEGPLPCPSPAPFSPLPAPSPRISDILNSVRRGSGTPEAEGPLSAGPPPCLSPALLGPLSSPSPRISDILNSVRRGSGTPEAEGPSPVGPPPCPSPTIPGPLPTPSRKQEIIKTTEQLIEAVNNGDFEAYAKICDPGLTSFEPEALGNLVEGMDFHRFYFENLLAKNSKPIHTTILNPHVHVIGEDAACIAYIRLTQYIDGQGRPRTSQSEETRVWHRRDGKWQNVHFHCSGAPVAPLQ

[8] = biological target: Ephrin type-A receptor 4 (Homo sapiens) (UniProt P54764); assay: EPHA4 Invitrogen selectivity data (BI); conditions: Compound concentration 3.0 uM
Sequence of Ephrin type-A receptor 4 (Homo sapiens) (P54764 whole entry): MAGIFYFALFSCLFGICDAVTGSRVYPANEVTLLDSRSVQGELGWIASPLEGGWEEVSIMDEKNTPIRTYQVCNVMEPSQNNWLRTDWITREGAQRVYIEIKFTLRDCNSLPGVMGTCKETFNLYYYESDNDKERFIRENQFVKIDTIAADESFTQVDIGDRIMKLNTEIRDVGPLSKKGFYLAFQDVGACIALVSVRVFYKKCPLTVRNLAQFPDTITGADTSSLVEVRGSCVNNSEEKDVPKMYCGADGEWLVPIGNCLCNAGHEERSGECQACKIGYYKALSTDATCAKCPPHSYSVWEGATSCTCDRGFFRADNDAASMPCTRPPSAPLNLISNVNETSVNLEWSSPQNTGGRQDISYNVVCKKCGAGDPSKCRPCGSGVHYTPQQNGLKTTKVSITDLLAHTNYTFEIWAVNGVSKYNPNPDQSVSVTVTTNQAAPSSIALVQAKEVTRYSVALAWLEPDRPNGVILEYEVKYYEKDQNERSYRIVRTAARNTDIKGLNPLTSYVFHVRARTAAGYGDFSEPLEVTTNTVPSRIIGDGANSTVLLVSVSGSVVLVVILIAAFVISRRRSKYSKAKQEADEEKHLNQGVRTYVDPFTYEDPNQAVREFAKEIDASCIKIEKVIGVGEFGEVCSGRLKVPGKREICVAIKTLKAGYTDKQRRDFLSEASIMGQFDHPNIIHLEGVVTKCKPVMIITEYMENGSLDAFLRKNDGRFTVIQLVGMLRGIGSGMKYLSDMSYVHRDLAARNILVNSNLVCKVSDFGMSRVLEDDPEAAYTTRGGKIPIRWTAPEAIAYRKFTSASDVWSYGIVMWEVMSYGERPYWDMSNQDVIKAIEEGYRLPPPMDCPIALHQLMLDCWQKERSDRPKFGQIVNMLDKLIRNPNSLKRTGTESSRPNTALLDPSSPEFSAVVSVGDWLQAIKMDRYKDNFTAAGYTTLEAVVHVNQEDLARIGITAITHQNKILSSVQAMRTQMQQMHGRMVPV

[9] = biological target: T1, cAMP-dependent protein kinase catalytic subunit PRKX (Homo sapiens) (UniProt P51817); assay: PRKX Invitrogen selectivity data (BI); conditions: Compound concentration 3.0 uM
T1 sequence (whole entry): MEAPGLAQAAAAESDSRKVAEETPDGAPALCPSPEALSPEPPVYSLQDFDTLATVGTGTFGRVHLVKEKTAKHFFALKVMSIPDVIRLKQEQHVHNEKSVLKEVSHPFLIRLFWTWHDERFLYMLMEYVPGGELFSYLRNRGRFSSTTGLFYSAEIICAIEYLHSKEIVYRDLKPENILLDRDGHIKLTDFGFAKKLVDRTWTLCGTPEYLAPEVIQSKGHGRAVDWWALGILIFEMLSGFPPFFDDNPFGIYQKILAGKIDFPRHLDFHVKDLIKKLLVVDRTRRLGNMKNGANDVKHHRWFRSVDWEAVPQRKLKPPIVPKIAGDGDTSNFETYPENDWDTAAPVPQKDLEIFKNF

[10] = biological target: T2, Rhodopsin kinase GRK7 (Homo sapiens) (UniProt Q8WTQ7); assay: GRK7 Invitrogen selectivity data (BI); conditions: Compound concentration 3.0 uM
T2 sequence (whole entry): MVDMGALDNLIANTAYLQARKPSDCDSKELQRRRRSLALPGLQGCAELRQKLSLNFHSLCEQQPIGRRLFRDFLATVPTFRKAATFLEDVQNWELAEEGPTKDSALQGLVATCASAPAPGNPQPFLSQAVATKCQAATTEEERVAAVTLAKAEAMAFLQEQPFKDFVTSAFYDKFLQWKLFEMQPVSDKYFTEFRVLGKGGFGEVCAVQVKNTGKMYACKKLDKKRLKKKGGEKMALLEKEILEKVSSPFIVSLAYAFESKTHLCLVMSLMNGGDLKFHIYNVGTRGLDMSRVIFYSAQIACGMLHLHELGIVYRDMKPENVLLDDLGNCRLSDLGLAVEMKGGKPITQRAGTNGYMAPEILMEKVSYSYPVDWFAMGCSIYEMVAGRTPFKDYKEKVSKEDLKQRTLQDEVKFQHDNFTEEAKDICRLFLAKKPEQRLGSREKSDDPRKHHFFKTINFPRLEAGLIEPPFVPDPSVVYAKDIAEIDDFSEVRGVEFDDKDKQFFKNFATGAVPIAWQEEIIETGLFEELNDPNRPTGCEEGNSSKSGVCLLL

[11] = biological target: T3, Alpha-1A adrenergic receptor (Homo sapiens) (UniProt P35348); assay: ALPHA1AH_ANTAG Cerep selectivity data (BI); conditions: filed as antagonist, Compound concentration 20.0 uM
T3 sequence (whole entry): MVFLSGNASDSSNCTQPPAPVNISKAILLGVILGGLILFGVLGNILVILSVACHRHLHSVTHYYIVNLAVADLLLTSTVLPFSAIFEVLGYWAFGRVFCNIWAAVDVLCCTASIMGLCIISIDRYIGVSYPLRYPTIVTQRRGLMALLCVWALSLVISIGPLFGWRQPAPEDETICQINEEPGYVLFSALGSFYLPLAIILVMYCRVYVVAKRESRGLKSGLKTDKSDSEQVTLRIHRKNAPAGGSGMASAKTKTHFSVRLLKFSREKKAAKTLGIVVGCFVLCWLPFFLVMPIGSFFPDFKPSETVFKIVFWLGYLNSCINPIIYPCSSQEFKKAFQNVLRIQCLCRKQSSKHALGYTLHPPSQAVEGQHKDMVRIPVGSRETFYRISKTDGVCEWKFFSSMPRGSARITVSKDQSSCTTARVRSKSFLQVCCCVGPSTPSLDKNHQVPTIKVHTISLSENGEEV

[12] = biological target: T4, Inhibitor of nuclear factor kappa-B kinase subunit epsilon (Homo sapiens) (UniProt Q14164); assay: IKBKE Invitrogen selectivity data (BI); conditions: Compound concentration 3.0 uM
T4 sequence (whole entry): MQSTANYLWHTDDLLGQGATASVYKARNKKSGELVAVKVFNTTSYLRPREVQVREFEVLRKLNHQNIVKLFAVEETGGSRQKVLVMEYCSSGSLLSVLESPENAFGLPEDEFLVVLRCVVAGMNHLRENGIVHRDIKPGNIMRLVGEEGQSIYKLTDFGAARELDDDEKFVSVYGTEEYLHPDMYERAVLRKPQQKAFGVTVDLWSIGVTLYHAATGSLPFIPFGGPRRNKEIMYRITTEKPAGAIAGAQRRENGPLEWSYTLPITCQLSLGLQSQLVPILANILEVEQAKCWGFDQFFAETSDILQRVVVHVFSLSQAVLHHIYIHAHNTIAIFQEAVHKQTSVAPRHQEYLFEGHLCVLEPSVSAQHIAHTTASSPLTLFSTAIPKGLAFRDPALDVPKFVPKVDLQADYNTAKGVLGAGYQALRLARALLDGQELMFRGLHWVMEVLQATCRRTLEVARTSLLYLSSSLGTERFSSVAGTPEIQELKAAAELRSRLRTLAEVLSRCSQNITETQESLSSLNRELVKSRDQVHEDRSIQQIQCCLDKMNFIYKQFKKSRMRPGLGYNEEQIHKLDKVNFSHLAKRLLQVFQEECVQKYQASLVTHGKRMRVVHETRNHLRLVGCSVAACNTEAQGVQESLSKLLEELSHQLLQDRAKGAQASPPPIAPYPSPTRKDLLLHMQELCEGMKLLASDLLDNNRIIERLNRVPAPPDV

[13] = biological target: Glycogen synthase kinase-3 alpha (Homo sapiens) (UniProt P49840); assay: GSK3A Invitrogen selectivity data (BI); conditions: Compound concentration 3.0 uM
Sequence of Glycogen synthase kinase-3 alpha (Homo sapiens) (P49840 2-483 limits assumed): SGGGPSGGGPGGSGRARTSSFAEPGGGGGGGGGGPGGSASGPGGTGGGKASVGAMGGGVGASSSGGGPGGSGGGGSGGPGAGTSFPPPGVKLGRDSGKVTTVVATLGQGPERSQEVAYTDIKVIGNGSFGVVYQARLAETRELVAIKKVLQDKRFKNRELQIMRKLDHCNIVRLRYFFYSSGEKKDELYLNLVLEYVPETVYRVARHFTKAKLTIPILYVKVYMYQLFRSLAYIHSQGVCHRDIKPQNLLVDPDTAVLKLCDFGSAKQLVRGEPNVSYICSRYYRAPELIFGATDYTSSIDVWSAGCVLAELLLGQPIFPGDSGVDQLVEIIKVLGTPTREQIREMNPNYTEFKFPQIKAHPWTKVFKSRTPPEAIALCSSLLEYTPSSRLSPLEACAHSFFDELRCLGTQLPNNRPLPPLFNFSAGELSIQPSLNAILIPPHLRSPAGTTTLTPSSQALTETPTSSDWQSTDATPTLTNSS

[14] = biological target: Tyrosine-protein kinase JAK2 (Homo sapiens) (UniProt O60674); assay: JAK2 Invitrogen selectivity data (BI); conditions: Compound concentration 3.0 uM
[15] = biological target: Histamine H3 receptor (Homo sapiens) (UniProt Q9Y5N1); assay: H3/NAMEH_H Cerep selectivity data (BI); conditions: filed as antagonist, Compound concentration 20.0 uM
[16] = biological target: Mitogen-activated protein kinase 14 (Homo sapiens) (UniProt Q16539); assay: MAPK14P38A Invitrogen selectivity data (BI); conditions: Compound concentration 3.0 uM
Sequence of Mitogen-activated protein kinase 14 (Homo sapiens) (Q16539 whole entry): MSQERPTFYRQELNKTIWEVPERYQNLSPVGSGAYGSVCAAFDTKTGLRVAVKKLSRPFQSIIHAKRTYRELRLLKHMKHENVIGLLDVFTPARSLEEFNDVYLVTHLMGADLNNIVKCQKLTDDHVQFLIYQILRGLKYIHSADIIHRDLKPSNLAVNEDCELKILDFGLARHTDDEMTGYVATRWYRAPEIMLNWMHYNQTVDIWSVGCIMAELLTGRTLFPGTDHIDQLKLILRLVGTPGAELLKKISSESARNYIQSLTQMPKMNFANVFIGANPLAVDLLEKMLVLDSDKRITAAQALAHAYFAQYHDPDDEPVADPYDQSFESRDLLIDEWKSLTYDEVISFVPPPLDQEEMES

Measured: residual activity

Sequence of Histamine H3 receptor (Homo sapiens) (Q9Y5N1 whole entry): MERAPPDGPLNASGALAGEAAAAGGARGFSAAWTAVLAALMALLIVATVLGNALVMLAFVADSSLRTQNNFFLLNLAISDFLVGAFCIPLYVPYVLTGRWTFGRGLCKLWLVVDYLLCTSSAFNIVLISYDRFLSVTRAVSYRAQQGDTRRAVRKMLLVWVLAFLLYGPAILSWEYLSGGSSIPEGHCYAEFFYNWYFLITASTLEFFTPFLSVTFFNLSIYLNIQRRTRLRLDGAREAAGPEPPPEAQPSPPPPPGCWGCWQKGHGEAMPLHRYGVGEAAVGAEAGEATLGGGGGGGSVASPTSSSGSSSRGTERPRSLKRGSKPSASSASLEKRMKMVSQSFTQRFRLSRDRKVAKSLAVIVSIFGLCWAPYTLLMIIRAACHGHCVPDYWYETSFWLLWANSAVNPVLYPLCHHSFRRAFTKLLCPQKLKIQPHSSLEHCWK
Sequence of Prostaglandin E2 receptor EP2 subtype (Homo sapiens) (P43116 whole entry): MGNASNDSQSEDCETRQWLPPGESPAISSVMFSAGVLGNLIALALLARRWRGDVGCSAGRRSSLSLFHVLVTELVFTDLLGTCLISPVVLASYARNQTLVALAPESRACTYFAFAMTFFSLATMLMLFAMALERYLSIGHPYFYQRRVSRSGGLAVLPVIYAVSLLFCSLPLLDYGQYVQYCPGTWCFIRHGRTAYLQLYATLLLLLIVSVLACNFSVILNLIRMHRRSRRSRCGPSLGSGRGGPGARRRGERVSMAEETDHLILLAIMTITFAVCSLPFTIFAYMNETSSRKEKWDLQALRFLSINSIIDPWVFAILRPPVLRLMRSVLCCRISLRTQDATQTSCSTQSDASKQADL

CN(C)C(=O)Cn1cc(-c2nc([C@@](C)(c3ccc(-c4cnc(N)nc4)cc3)C3CC3)no2)cn1 [BI 665915]
inactive: [1] 123% | [2] 97% | [3] 100% | [4] 60% | [5] 90% | [6] 99% | [7] 95% | [8] 95% | [9] 102% | [10] 101% | [11] 99% | [12] 99.5% | [13] 96% | [14] 91% | [15] 108% | [16] 100%
